In brackets after ≈: the same amount, converted by molar mass.
Assays:
[1] = Solubility of DIM-P in buffers of different pH, assayed by HPLC; assay type: physicochemical
Experimental: (§1) Solubility measurements were assayed by HPLC. Five milligrams of DIM-C-pPhC6H5 (“DIM-P”) was suspended in 1 ml of different buffers having pH 2.0, 4.0, 5.0, 6.0, 7.0 and 8.0 in a centrifuge tubes. The tubes were placed at 37±0.1° C. and kept for shaking at 1500 rpm for 24 hours. The suspensions were centrifuged, and supernatant were filtered using 0.1 μm filters prior to HPLC analysis. Partition co-efficient of DIM-P was measured in an octanol-water system. Octanol and water were mixed in 1:1 concentration and 3 mg of DIM-P was added to 2 mL of mixture followed by vigorous shaking for 5 minutes. The mixture was separated by centrifugation and samples were collected and filtered through 0.1 μm filters prior to HPLC analysis.

[2] = Partition co-efficient in an octanol-water system; assay type: physicochemical; conditions: octanol-water 1:1
Experimental: as §1

- solubility ([1]; at any pH): less than 1 μg/mL
- solubility ([1]; pH 2.0, 37°C, 24 hours shaking): 0.18 ± 0.003 µg/mL (≈ 0.452 µM)
- Maximum solubility ([1]; pH 8.0, 37°C, 24 hours shaking): 0.73 ± 0.09 µg/mL
- sequence of solubility ([1]; rank order by pH): pH 8.0>6.0>4.0>2.0
- log p value [2]: 6.97±0.12
SMILES: c1ccc(-c2ccc(C(c3c[nH]c4ccccc34)c3c[nH]c4ccccc34)cc2)cc1 [DIM-P, DIM-C-pPhC6H5]

Source: US9968557B1, “Method of preparing modified multilayered microstructures with enhanced oral bioavailability” (Florida A&M University, priority 2011, dated 2018)
